According to PMC12677653, “Inhibition of Tumor Lipogenesis and Growth by Peptide‐Based Targeting of SREBP Activation” (Advanced Science, 2025):

Test system: lipid levels, Ki67, Insig1 pS207/Insig2 pS151
Assay: Oil Red O and IHC of tumors from high-fat diet mice
Type: in vivo, nude mice
Details: orthotopic Huh7, high-fat diet, IHC; semaglutide 30 nmol/kg ip daily and/or LNP peptide 10 mg/kg iv
Procedure: Figure 5 The Insig1/2 loop 1 peptide in combination with semaglutide treatment induces an additive tumor inhibitor effect. a–c) Huh7 cells were orthotopically injected into the liver of nude mice (n = 7 per group). Treatment groups received intravenous injections of LNP@Insig1/2 loop 1 peptide (10 mg kg^−1, every other day), and/or intraperitoneal injection of Semaglutide (30 nmol kg^−1, daily). (a) Representative optical images of tumors, (b) tumor weights, data are expressed as mean ± SD, statistical significance was determined by one‐way analysis of variance (ANOVA), and (c) survival analysis was performed using Kaplan‐Meier curves. Statistical significance was determined by Log‐rank (Mantel‐Cox) test. d) Cryosections of mouse tumor tissues were prepared, and lipid accumulation was assessed by Oil Red O staining. […] Quantitative analysis of lipid droplet counts (Oil Red O‐positive particles) was performed. Data are expressed as mean ± SD (n = 3). Statistical significance was determined by one‐way analysis of variance (ANOVA). e) Immunohistochemical (IHC) analysis of mouse tumor specimens was performed using the Ki67 antibody. […] Data are expressed as mean ± SD (n = 3). Statistical significance was determined by one‐way analysis of variance (ANOVA). f) Immunohistochemical (IHC) analysis of mouse tumor specimens was performed using the Insig1 pS207/Insig2 pS151 antibody. […]

## RKKRRQRRRLYPCIDSHLGEPHKFKRE [Insig1/2 loop 1 peptide]
  high-fat diet-enhanced Insig1 S207 and Insig2 S151 phosphorylation in tumors: reduced
